# Results from patent US20110281802A1, “COMPOSITION FOR TREATMENT AND PREVENTION OF HAIR LOSS AND PREMATURE GRAYING OF HAIR” (Immudiagnostik AG, priority 2007, published 2011).
# System: TSH
# Assay: Immunohistochemical staining of treated hair follicles for TSH (assay #6)
# Assay type: cell-based, human
# Conditions: few slides only
# Method: Assay #6—Stimulation of expression of pituitary hormones by Thymulin (PRL+TSH): Hair follicles from the occipital area of a person were cultured for 9 days and treated with culture medium and thymulin 10 pg/mL (human thymulin, No A9530AG.1; Immundiagnostik AG, Bensheim, Germany) as described above, then snap frozen and sectioned. The staining was performed according to the following protocol:
# B. TSH: Pre-incubation with 10% goat serum (Dako Cytomation, CatNo 50114121) in TBS for 20 minutes, then incubation with primary antibody (mouse anti-human TSH, Dianova, Hamburg, Germany, CatNo DLN 07830), dilution 1:20 in TBS+2% goat serum (Dako Cytomation, CatNo 50114121) overnight at 4° C. Thereafter washing in TBS. Incubation with secondary antibody (goat anti-mouse-biotinylated, Beckman Coulter, Inc. Fullerton, Calif., USA, CatNo IM0816) diluted to 1:200 with 2% goat serum in TBS for 45 minutes at room temperature. Treatment with avidin/biotin-complex coupled with alkaline phosphatase (Vector Laboratories, Burlingame, Calif., USA; CatNo AK-5000) for 30 minutes, then washes in TBS. Thereafter treatment with Fast Red Tablets (Sigma-Aldrich, CatNo F4648-50SET) for 6 minutes. Counterstaining with Mayer's Haemalaun (Chroma Muenster, CatNo 2E038) and mounting with Aquamount (DAKO Cytomation, CatNo S3025). […]
substance,measurement,value
thymulin,"Immunoreactivity for TSH, treated versus control hair follicles (in words)",Did not Show any Differences
